{"source": "paper PMC12508156", "about": "“Non-canonical dihydrolipoyl transacetylase promotes chemotherapy resistance via mitochondrial tetrahydrofolate signaling” (Nature Communications, 2025)", "key": {"[1]": {"test_system": "A549cisR cells", "assay": "Cell viability (CellTiter-Glo)", "format": "cell-based, human", "set-up": "unit not given here", "settings": "48 h, n=1-3: biological replicates", "experimental": "(§1) Cell viability was determined using the CellTiter-Glo Luminescent Cell Viability Assay. […] Subsequently, the cells were cultured in complete medium for an additional 10 days, and the resulting colonies were visualized by staining with crystal violet and quantified using ImageJ software. For cell cycle analysis, cells fixed with 70% ethanol were stained with RNase A (100 µg/mL) and propidium iodide (50 μg/ml) for 30 min at 37 °C, and DNA content distribution was measured using flow cytometry (BD Symphony A3) and analyzed with FlowJo software (v10.9). Apoptotic cell death was assessed via FITC-conjugated annexin V and propidium iodide staining."}, "[2]": {"test_system": "KB-3-1cisR cells", "assay": "Cell viability (CellTiter-Glo)", "format": "cell-based, human", "set-up": "unit not given here", "settings": "48 h, n=1-3: biological replicates", "experimental": "as §1"}, "[3]": {"test_system": "H1299 cells", "assay": "Cell viability (CellTiter-Glo)", "format": "cell-based, human", "set-up": "unit not given here", "settings": "48 h, n=1-3: biological replicates", "experimental": "as §1"}, "[4]": {"test_system": "PCI-37B cells", "assay": "Cell viability (CellTiter-Glo)", "format": "cell-based, human", "set-up": "unit not given here", "settings": "48 h, n=1-3: biological replicates", "experimental": "as §1"}, "[5]": {"test_system": "lung cancer patient-derived xenograft tumors", "assay": "IHC of lung cancer PDX tumors (Ac-K44 MTHFD2, MT-CO2, DLAT)", "format": "in vivo, athymic nu/nu mice", "set-up": "key: IHC intensity score 0 to 3+", "settings": "lung cancer PDX tumors (Figure 8M)", "source_text": "Formalin-fixed and paraffin-embedded tumor tissue specimens from HNSCC and NSCLC patients were obtained from the […] Cancer Tissue and Pathology Shared Resources. The Institutional Review Board (IRB) of Emory University approved using human specimens (IRB00003208 - HNSCC, IRB00098377 - NSCLC). Clinical samples were collected with informed consent according to the Health Insurance Portability and Accountability Act. Patients' clinical information was obtained through the […] Technology Applications Shared Resource. Tumors from HNSCC or NSCLC patients who received chemotherapy-containing regimens were used. Immunohistochemistry (IHC) staining of DLAT, acetyl-[…] MTHFD2, MT-CO2, and Ki-67 was performed based on the established protocol. Antigen retrieval was conducted in Tris-EDTA (pH 9.0) for acetyl-[…] MTHFD2 and MT-CO2 and sodium citrate (pH 6.0) for the remaining antigens. […] Assessment of positive DLAT, MT-CO2, and acetyl-[…] MTHFD2 staining intensity within tumor cells was performed using a scoring system ranging from 0 to 3+ based on IHC signal intensity. Mice were subcutaneously injected into the flank with 1 × 10^6 KB-3-1^cisR cells with or without DLAT knockdown. […] Tumors were collected at the experimental endpoint, and tumor proliferation was assessed using Ki-67 IHC staining. The localization, penetration, and efficacy of DMp39 were monitored by assessing the acetyl-[…] levels in tumors and fluorescence imaging analysis using an IVIS imaging system. Drug-induced organ toxicities, including splenomegaly, liver damage, and kidney injury, were monitored by assessing spleen index, alanine transaminase activity, and cystatin C levels in plasma."}, "[6]": {"test_system": "A549cisR and KB-3-1cisR cells", "assay": "Cell cycle distribution (propidium iodide, flow cytometry)", "format": "cell-based, human", "experimental": "as §1\n1cisR cells were transduced with DLAT-targeting shRNA and treated with sublethal doses of […]\nantioxidant N-acetylcysteine (NAC). (a) Western blot analysis of p21 waf1/cip1 expression as a marker of cellular senescence. (b) Western blot analysis of LC3-I/II and p62 as markers of autophagy. (c) Cell cycle distribution was assessed by flow cytometry following propidium iodide staining. (d) Intracellular ROS levels were measured using the H2DCFDA probe. Error bars represent SD and are from 3 independent biological replicates for (c,d). P values were determined by one-way ANOVA.\n(1 picture or pasted object on this page, not shown here)"}, "[7]": {"settings": "A549cisR cells, pLKO.1, replicate 1"}, "[8]": {"settings": "A549cisR cells, pLKO.1, replicate 2"}, "[9]": {"settings": "A549cisR cells, pLKO.1, replicate 3"}, "[10]": {"settings": "A549cisR cells, shDLAT, replicate 1"}, "[11]": {"settings": "A549cisR cells, shDLAT, replicate 2"}, "[12]": {"settings": "A549cisR cells, shDLAT, replicate 3"}, "[13]": {"settings": "KB-3-1cisR cells, pLKO.1, replicate 1"}, "[14]": {"settings": "KB-3-1cisR cells, pLKO.1, replicate 2"}, "[15]": {"settings": "KB-3-1cisR cells, pLKO.1, replicate 3"}, "[16]": {"settings": "KB-3-1cisR cells, shDLAT, replicate 1"}, "[17]": {"settings": "KB-3-1cisR cells, shDLAT, replicate 2"}, "[18]": {"settings": "KB-3-1cisR cells, shDLAT, replicate 3"}}, "note": "Where “and” joins values, the source holds several entries; their conditions need not be identical. Equal entries are not always repeated.", "data": [{"smiles": "N.N.[Cl][Pt][Cl]", "note": "[cisplatin]", "values": [{"measurement": "cisplatin IC50", "setting": "[1]; DLAT #1 shRNA knockdown", "result": "3.049 and 3.093 and 3.477"}, {"measurement": "cisplatin IC50", "setting": "[1]; DLAT #2 shRNA knockdown", "result": "3.68 and 3.342 and 3.385"}, {"measurement": "cisplatin IC50", "setting": "[1]; pLKO.1 control", "result": "10.93 and 10.63 and 11.6"}, {"measurement": "cisplatin IC50", "setting": "[2]; DLAT #1 shRNA knockdown", "result": "5.222 and 4.723 and 5.403"}, {"measurement": "cisplatin IC50", "setting": "[2]; DLAT #2 shRNA knockdown", "result": "8.292 and 8.491 and 9.402"}, {"measurement": "cisplatin IC50", "setting": "[2]; pLKO.1 control", "result": "35.64 and 37.47 and 39.03"}, {"measurement": "cisplatin IC50", "setting": "[3]; H1299, DLAT #1 shRNA knockdown", "result": "4.334 and 4.088 and 4.359"}, {"measurement": "cisplatin IC50", "setting": "[3]; H1299, DLAT #2 shRNA knockdown", "result": "9.212 and 9.08 and 8.246"}, {"measurement": "cisplatin IC50", "setting": "[3]; H1299, pLKO.1 control", "result": "13.89 and 13.96 and 12.36"}, {"measurement": "cisplatin IC50", "setting": "[4]; DLAT #1 shRNA knockdown", "result": "0.6706 and 0.655 and 0.6977"}, {"measurement": "cisplatin IC50", "setting": "[4]; DLAT #2 shRNA knockdown", "result": "1.089 and 1.15 and 1.31"}, {"measurement": "cisplatin IC50", "setting": "[4]; pLKO.1 control", "result": "2.128 and 2.267 and 2.42"}, {"measurement": "Ac-K44 (IHC score)", "setting": "[5]; n=1", "result": 2}, {"measurement": "DLAT (IHC score)", "setting": "[5]; n=1", "result": 1}, {"measurement": "MT-CO2 (IHC score)", "setting": "[5]; n=1", "result": 3}, {"measurement": "Ac-K44 (IHC score)", "setting": "[5]; n=2", "result": 2}, {"measurement": "DLAT (IHC score)", "setting": "[5]; n=2", "result": 2}, {"measurement": "MT-CO2 (IHC score)", "setting": "[5]; n=2", "result": 3}, {"measurement": "Ac-K44 (IHC score)", "setting": "[5]; n=3", "result": 3}, {"measurement": "DLAT (IHC score)", "setting": "[5]; n=3", "result": 3}, {"measurement": "MT-CO2 (IHC score)", "setting": "[5]; n=3", "result": 3}, {"measurement": "Ac-K44 (IHC score)", "setting": "[5]; n=4", "result": 3}, {"measurement": "DLAT (IHC score)", "setting": "[5]; n=4", "result": 2}, {"measurement": "MT-CO2 (IHC score)", "setting": "[5]; n=4", "result": 2}, {"measurement": "Ac-K44 (IHC score)", "setting": "[5]; n=5", "result": 2}, {"measurement": "DLAT (IHC score)", "setting": "[5]; n=5", "result": 2}, {"measurement": "MT-CO2 (IHC score)", "setting": "[5]; n=5", "result": 3}, {"measurement": "Cell cycle, G1 phase", "setting": "[6]; [7]", "result": 34.1}, {"measurement": "Cell cycle, G2 phase", "setting": "[6]; [7]", "result": 36.2}, {"measurement": "Cell cycle, S phase", "setting": "[6]; [7]", "result": 29.7}, {"measurement": "Cell cycle, G1 phase", "setting": "[6]; [8]", "result": 33.1}, {"measurement": "Cell cycle, G2 phase", "setting": "[6]; [8]", "result": 39.3}, {"measurement": "Cell cycle, G1 phase", "setting": "[6]; [9]", "result": 33.1}, {"measurement": "Cell cycle, G2 phase", "setting": "[6]; [9]", "result": 38.8}, {"measurement": "Cell cycle, S phase", "setting": "[6]; [9]", "result": 28.1}, {"measurement": "Cell cycle, G1 phase", "setting": "[6]; [10]", "result": 39.2}, {"measurement": "Cell cycle, G2 phase", "setting": "[6]; [10]", "result": 37.2}, {"measurement": "Cell cycle, S phase", "setting": "[6]; [10]", "result": 23.6}, {"measurement": "Cell cycle, G1 phase", "setting": "[6]; [11]", "result": 39.5}, {"measurement": "Cell cycle, G2 phase", "setting": "[6]; [11]", "result": 39.6}, {"measurement": "Cell cycle, S phase", "setting": "[6]; [11]", "result": 20.9}, {"measurement": "Cell cycle, G1 phase", "setting": "[6]; [12]", "result": 39.5}, {"measurement": "Cell cycle, G2 phase", "setting": "[6]; [12]", "result": 38.6}, {"measurement": "Cell cycle, S phase", "setting": "[6]; [12]", "result": 21.9}, {"measurement": "Cell cycle, G1 phase", "setting": "[6]; [13]", "result": 23.3}, {"measurement": "Cell cycle, G2 phase", "setting": "[6]; [13]", "result": 58.9}, {"measurement": "Cell cycle, S phase", "setting": "[6]; [13]", "result": 17.8}, {"measurement": "Cell cycle, G1 phase", "setting": "[6]; [14]", "result": 23.7}, {"measurement": "Cell cycle, G2 phase", "setting": "[6]; [14]", "result": 58.1}, {"measurement": "Cell cycle, S phase", "setting": "[6]; [14]", "result": 18.2}, {"measurement": "Cell cycle, G1 phase", "setting": "[6]; [15]", "result": 24.3}, {"measurement": "Cell cycle, G2 phase", "setting": "[6]; [15]", "result": 57.9}, {"measurement": "Cell cycle, S phase", "setting": "[6]; [15]", "result": 17.8}, {"measurement": "Cell cycle, G1 phase", "setting": "[6]; [16]", "result": 18.3}, {"measurement": "Cell cycle, G2 phase", "setting": "[6]; [16]", "result": 63.6}, {"measurement": "Cell cycle, S phase", "setting": "[6]; [16]", "result": 18.1}, {"measurement": "Cell cycle, G1 phase", "setting": "[6]; [17]", "result": 17.6}, {"measurement": "Cell cycle, G2 phase", "setting": "[6]; [17]", "result": 63.5}, {"measurement": "Cell cycle, S phase", "setting": "[6]; [17]", "result": 18.9}, {"measurement": "Cell cycle, G1 phase", "setting": "[6]; [18]", "result": 17}, {"measurement": "Cell cycle, S phase", "setting": "[6]; [18]", "result": 19.8}]}]}
